The values that follow come from PubChem BioAssay (NCI).

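1) Cells in 96-well plates. 2) Compound, 48 h, 5 concentrations. 3) Linear interpolation between surrounding doses. 4) Unreached endpoint = highest concentration. At the GI50, growth is halved. At the TGI there is no net growth.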 Some results are limits rather than exact numbers.

Test systems include ACHN renal; HCT-15 colon; HOP-92 NSCLC; MOLT-4 leukemia; NCI-H23 lung; SF-295 CNS; SF-539 CNS; SK-MEL-5 melanoma.
Holding throughout (assay): NCI tumour cell line growth inhibition, 48 h

On to `CC1OC(n2cc(I)c(=O)[nH]c2=O)C=CC1=O` (stereo not given), for which the TGI worked out at 31.5 µM in the experiment on ACHN renal; 32.3 µM in the experiment on HCT-15 colon; 33.9 µM with HOP-92 NSCLC; 33.8 µM in the experiment on MOLT-4 leukemia; 30.7 µM in the experiment with NCI-H23 lung; 32.5 µM in the experiment with SF-295 CNS. For the same compound, the TGI came out at 27.5 µM in the experiment on SF-539 CNS and 29.5 µM with SK-MEL-5 melanoma.

As to `C[C@]12CC/C(=N\OC(=O)Nc3ccccc3)C=C1CC[C@@H]1C2CC[C@@]2(C)C1CC[C@@H]2OC(=O)Nc1ccccc1` (stereo not given in full), the TGI with ACHN renal is above 100 µM; in the experiment with HCT-15 colon it was 14.2 µM; in the experiment on HOP-92 NSCLC it was above 100 µM; with MOLT-4 leukemia, above 100 µM; with NCI-H23 lung it was above 100 µM; with SF-295 CNS it was above 100 µM. Besides, the TGI in the experiment on SF-539 CNS and in the experiment with SK-MEL-5 melanoma was above 100 µM throughout.

For `N#CC(C(=O)C(=O)Nc1ccc(Cl)c(Cl)c1)c1ccc(Cl)cc1` (stereo not given), the TGI in the experiment on ACHN renal was above 100 µM; in the experiment with HCT-15 colon it was above 100 µM; in the experiment on HOP-92 NSCLC, 99.2 µM; in the experiment with MOLT-4 leukemia, above 100 µM; in the experiment on NCI-H23 lung, above 100 µM; in the experiment on SF-295 CNS, above 100 µM. In addition, the TGI in the experiment with SF-539 CNS and in the experiment with SK-MEL-5 melanoma was above 100 µM in each case.

Regarding `CCCCCCCCCCCCCC(=O)OC1C(CO)OC(=O)C1O` (stereo not given), the TGI is above 100 µM with ACHN renal; above 100 µM in the experiment on HCT-15 colon; 95.9 µM in the experiment on HOP-92 NSCLC; above 100 µM in the experiment with MOLT-4 leukemia; above 100 µM in the experiment with NCI-H23 lung; above 100 µM with SF-295 CNS. Also, the TGI with SF-539 CNS and in the experiment with SK-MEL-5 melanoma was above 100 µM in each case.

On to `COc1cccc(N2C(=O)[C@H]3[C@H]4CC(C(C)(C)C)CC[C@H]4c4c([nH]c5ccccc45)[C@H]3C2=O)c1` (stereo not given in full), for which the TGI in the experiment with HCT-15 colon is above 100 µM; with MOLT-4 leukemia, 25.1 µM; in the experiment with NCI-H23 lung, 40.9 µM; with SF-295 CNS it was 29.2 µM; in the experiment on SF-539 CNS, 42.1 µM; in the experiment on SK-MEL-5 melanoma it was 35.6 µM.

Consider `CSC1CC2C(CC1(C)SC)C2(C)C` (stereo not given), for which the TGI is above 100 µM in the experiment with ACHN renal; above 100 µM in the experiment with HCT-15 colon; 53.9 µM in the experiment on HOP-92 NSCLC; above 100 µM in the experiment on MOLT-4 leukemia; above 100 µM in the experiment with NCI-H23 lung; above 100 µM with SF-295 CNS. In addition, the values for the TGI in the experiment on SF-539 CNS and in the experiment on SK-MEL-5 melanoma were above 100 µM and 78.9 µM, respectively.

Take `O=C(CC(=O)c1cccc([N+](=O)[O-])c1)C(=O)Nc1nc([N+](=O)[O-])cs1`: the TGI in the experiment on HCT-15 colon, in the experiment with HOP-92 NSCLC, with MOLT-4 leukemia, in the experiment on NCI-H23 lung, in the experiment with SF-295 CNS and with SF-539 CNS was above 100 µM throughout. Besides, the TGI in the experiment on SK-MEL-5 melanoma is above 100 µM.

In the case of `COc1ccc2c([nH]c3cc(O)c(C)cc32)c1CC=C(C)C`, the GI50 with ACHN renal is 9.35 µM; in the experiment with HCT-15 colon it was 5.14 µM; in the experiment on HOP-92 NSCLC, 8.03 µM; in the experiment on MOLT-4 leukemia, 4.94 µM; with SF-539 CNS it was 8.01 µM; with SK-MEL-5 melanoma, 8.04 µM. Besides, the TGI is above 25 µM in the experiment on ACHN renal; above 25 µM in the experiment with HCT-15 colon; above 25 µM in the experiment on HOP-92 NSCLC; 15.9 µM with MOLT-4 leukemia; above 25 µM with SF-539 CNS; above 25 µM in the experiment on SK-MEL-5 melanoma.

`COc1cc2c(cc1OC)C1(c3ccccc3)ON=C(c3ccccc3)N1CS2` (stereo not given): the TGI in the experiment with ACHN renal, in the experiment on HCT-15 colon, with HOP-92 NSCLC, with MOLT-4 leukemia, in the experiment on NCI-H23 lung and in the experiment with SF-295 CNS was above 100 µM in each case. For the same compound, the TGI in the experiment on SF-539 CNS and in the experiment with SK-MEL-5 melanoma was above 100 µM throughout.

Turning to `Cc1ccc(C(O)/C(=N/N)c2nc3ccc([N+](=O)[O-])cc3[nH]c2=O)cc1` (stereo not given), the TGI in the experiment with ACHN renal, with HCT-15 colon, in the experiment on HOP-92 NSCLC, in the experiment with MOLT-4 leukemia, in the experiment on NCI-H23 lung and with SF-295 CNS was above 100 µM throughout. Besides, the TGI in the experiment with SK-MEL-5 melanoma is above 100 µM.

With `CC(=O)O[C@]12CCCCC1C1(O)C(O)CCCC[C@H]12` (stereo not given in full), the TGI with ACHN renal, with HCT-15 colon, in the experiment with MOLT-4 leukemia, in the experiment on NCI-H23 lung, in the experiment on SF-295 CNS and in the experiment with SK-MEL-5 melanoma was above 100 µM in each case.

For `CCOc1ccc(N=Nc2c(-c3ccccc3)nn(C(=O)CC(=O)Nc3cccc(C)c3)c2-c2ccccc2)cc1`, the TGI in the experiment with ACHN renal, in the experiment on HOP-92 NSCLC, with MOLT-4 leukemia, in the experiment with NCI-H23 lung, in the experiment on SF-295 CNS and in the experiment on SF-539 CNS was above 100 µM each time. In addition, in the experiment on SK-MEL-5 melanoma, the TGI was above 100 µM.

`CO[C@]12CCC(=O)N1C=Cc1c2[nH]c2ccccc12`: the TGI with ACHN renal, with HCT-15 colon, in the experiment on HOP-92 NSCLC, in the experiment on MOLT-4 leukemia, with NCI-H23 lung and in the experiment on SF-295 CNS was above 100 µM in each case. In addition, the TGI with SF-539 CNS and in the experiment with SK-MEL-5 melanoma was above 100 µM each time.

On to `C/C=C/C=C\C(=O)C1c2cccc(O)c2C(=O)c2c(O)cc(C)cc21` (stereo not given), for which the TGI with ACHN renal is 2.66 µM; in the experiment on HCT-15 colon, 3.6 µM; in the experiment with HOP-92 NSCLC it was 3.33 µM; in the experiment on MOLT-4 leukemia, 8.19 µM; in the experiment with NCI-H23 lung, 3.65 µM; with SF-295 CNS it was 2.25 µM. Further, the TGI in the experiment on SF-539 CNS amounted to 1.52 µM; with SK-MEL-5 melanoma it was 2.69 µM.

Take `CC(C)N(C(=O)C12C3C4C5C3C1(C#N)C5C42)C(C)C` (stereo not given): the TGI in the experiment on ACHN renal, with HCT-15 colon, in the experiment on HOP-92 NSCLC, with MOLT-4 leukemia, in the experiment on NCI-H23 lung and in the experiment on SF-295 CNS was above 100 µM throughout. In addition, the TGI in the experiment on SF-539 CNS and in the experiment with SK-MEL-5 melanoma was above 100 µM in each case.

With `O=c1[nH]c(=O)n(C2OC(CO)C(O)C2O)cc1OCc1ccccc1` (stereo not given), the TGI was above 100 µM with ACHN renal; above 77.7 µM in the experiment with HCT-15 colon; above 100 µM with HOP-92 NSCLC; above 100 µM in the experiment with MOLT-4 leukemia; above 100 µM with NCI-H23 lung; above 100 µM in the experiment on SF-295 CNS. For the same compound, the TGI in the experiment with SF-539 CNS and in the experiment with SK-MEL-5 melanoma was above 100 µM each time.
